Reference: paper PMC5885031, “Chlamydia trachomatis dapF Encodes a Bifunctional Enzyme Capable of Both D-Glutamate Racemase and Diaminopimelate Epimerase Activities” (mBio, 2018)

Legend:
Assay type in all cases: biochemical
[1] = target: T1, DapFCT-His (chlamydial DapF, DAP epimerase) (Chlamydia trachomatis, UniProt B0B802); assay: glutamate racemase assay coupled to L-glutamate dehydrogenase (NADPH, […] nm); details: 20 mM D-Glu, 10 uM PLP, 10 mM MgCl2, 20 mM Tris-Cl pH 8.0, 37 C; racemization to L-Glu
T1 construct: 6-His tag at 5' end (N-terminal), tag not removed; pTBSG vector, E. coli BL21(DE3); Ni-NTA purified; ~32 kDa
T1 sequence (B0B802 1-275): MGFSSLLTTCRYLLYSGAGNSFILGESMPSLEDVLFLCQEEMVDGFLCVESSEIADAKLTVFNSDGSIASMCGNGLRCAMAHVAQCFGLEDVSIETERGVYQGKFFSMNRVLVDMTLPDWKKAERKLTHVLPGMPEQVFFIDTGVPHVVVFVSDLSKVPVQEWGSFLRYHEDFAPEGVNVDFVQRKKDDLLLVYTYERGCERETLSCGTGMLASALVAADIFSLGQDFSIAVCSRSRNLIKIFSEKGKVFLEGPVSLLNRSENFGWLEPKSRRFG

[2] = target: T1, DapFCT-His (chlamydial DapF, DAP epimerase); assay: as above; details: 10 mM D-Glu as substrate, 10 uM PLP, 10 mM MgCl2, 20 mM Tris-Cl pH 8.0, 37 C; competing substrate
[3] = target: T1, DapFCT-His (chlamydial DapF, DAP epimerase); assay: glutamate racemase coupled assay with and without PLP; details: 10 uM PLP, D-Glu as substrate, 10 mM MgCl2, 20 mM Tris-Cl pH 8.0, 37 C; required for racemase activity

SMILES: N[C@H](CCC(=O)O)C(=O)O [D-Glu]
- glutamate racemase assay coupled to L-glutamate dehydrogenase (NADPH, 340 nm) [1]: Purified DapFCT-His was assayed for glutamate racemase activity with D-Glu as the substrate

SMILES: N[C@@H](CCC[C@H](N)C(=O)O)C(=O)O [L,L-DAP]
- % decrease of glutamate racemase activity at 10 mM L,L-DAP [2]: 47%

SMILES: Cc1ncc(COP(=O)(O)O)c(C=O)c1O [pyridoxal phosphate]
- glutamate racemase coupled assay with and without PLP [3]: D-Glu racemization to L-Glu was found to be PLP dependent (Fig. 4a)
